Experiments:
[1] = test system: isolated guineapig auricle; assay: Aconitine-induced arrhythmia in isolated guineapig auricle; conditions: aconitine 15 ng/ml
Method: Isolated guineapig auricle was prepared after Burn J H (1952). Aconitine (15 ng/ml) when added, set up arrhythmia within (40±5) mins. This novel compound (5 ng/ml) could revert arrhythmia to normal within (45±4.2) mins. The normal functioning state was maintained, observed up to 6 hrs. Again, arrhythmia was set in isolated auricle with 2.25 mM CaCl2. Arrhythmia was reverted to normal with the novel compound (5 ng/ml) within (30±3.36) mins of observation.

male Wister albino rats = assay: Electrocardiograph studies (hypodynamic heart), aconitine-induced arrhythmia in anaesthetized rats; format: in vivo; conditions: aconitine 50 μg/100 g infused through the jugular vein
Method: Electrocardiograph studies were conducted on urethane (1.75 g/kg, i.p) anaesthetized male Wister albino rats (150±10 g). Recordings were obtained in lead II. Aconitine (50 μg/100 g) was infused through the jugular vein and arrhythmia was induced within 30±5 mins.

For `CCN1C[C@]2(COC)[C@H](O)C[C@H](OC)[C@@]34[C@@H]5C[C@@]6(O)[C@H](OC(=O)c7ccccc7)[C@@H]5[C@@](OC(C)=O)([C@@H]([C@H](OC)[C@H]23)[C@@H]14)[C@@H](O)[C@@H]6OC` [Aconitine], the “time to set up arrhythmia” value [1] was ≤ 40 ± 5 min and the “time to induction of arrhythmia” value (male Wister albino rats) was ≤ 30 ± 5 min.

Source: patent US7018659B2, “Anti-arrhythmic pharmaceutical composition and a process thereof” (Council of Scientific & Industrial Research, priority 2002, dated 2006)
